According to patent EP2305274A1, “Use of WNT stimulators for treating demyelinating diseases” (Centre National de la Recherche Scientifique (CNRS), priority 2009, dated 2011):
Like-named read-outs stand apart in the source and are kept apart here.

Tests used:
GSK3 = conditions: cited from earlier work
MSC80 cells = experiment: Western blot of MPZ, PMP22 and β-catenin proteins in MSC80 cells; format: cell-based, mouse; conditions: SB216763 10 µM, after 3h, lasted until 24h
Excerpt: Western blot analysis confirmed the stimulation of MPZ and PMP22 expression. […] This difference may be due to specific mRNA and protein half-life.
The increase in PMP22 protein expression was timedependent.

[1] = GSK3 inhibitors, see Meijer L et al, Trends in Pharmacological Sciences 2004

| Compound | IC50 (GSK3; [1]) [µM] | also measured |
| --- | --- | --- |
| CC(=O)O/N=C1/C(=C2/C(=O)Nc3cc(Br)ccc32)Nc2ccccc21 [6-bromoindirubin-3'acetoxime, (2'Z,3'E)-6-Bromoindirubin-3'-acetoxime] | < 0.1 | – |
| OCCCNc1cc(-c2ccnc(Nc3cccc(Cl)c3)n2)ccn1 [CGP60474, 3-{4-[2-(3-chlorophenylamino)-pyrimidin-4-yl]-pyridin-2-yl-amino}-propanol] | < 0.1 | – |
| [H]/N=C(/N)SCCCn1cc(C2=C(c3cn(C)c4ccccc34)C(=O)NC2=O)c2ccccc21 [Ro318220] | < 0.1 | – |
| Cn1cc(C2=C(c3ccc(Cl)cc3Cl)C(=O)NC2=O)c2ccccc21 [SB216763] | […] | expression of MPZ protein (Western blot) (MSC80 cells): enhanced; expression of PMP22 protein (Western blot) (MSC80 cells): enhanced; expression of β-catenin protein (Western blot) (MSC80 cells): enhanced |
| Nc1cccc(-c2cc3c(Oc4cccc(O)c4)ncnc3[nH]2)c1 [TWS119] | < 0.1 | – |
| CHIR98014 | – | IC50 (GSK3): < 0.1 µM |
